From PubChem BioAssay (NCI)
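Step 1: Grow cells in 96-well plates. Step 2: Expose to compound for 48 hours at 5 concentrations. Step 3: Interpolate endpoints linearly; if unreached, use highest concentration. GI50: concentration for 50% inhibition of growth. TGI: total growth inhibition.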

How the values were obtained:
Assay in all cases: NCI anticancer screen, dose series, 48 h
[1] = test system: UACC-62 melanoma
[2] = test system: CAKI-1 renal
[3] = test system: HT29 colon
[4] = test system: A549 NSCLC
[5] = test system: HS 578T breast
[6] = test system: SK-MEL-28 melanoma
[7] = test system: CCRF-CEM leukemia
[8] = test system: SF-268 CNS
[9] = test system: DMS 273 small cell lung
[10] = test system: DMS 114 small cell lung
[11] = test system: DLD-1 colon

| Structure (SMILES) | TGI [1] [µM] | TGI [2] [µM] | TGI [3] [µM] | TGI [4] [µM] | TGI [5] [µM] | TGI [6] [µM] | TGI [7] [µM] | TGI [8] [µM] | TGI [9] [µM] | TGI [10] [µM] | GI50 [1] [µM] | GI50 [2] [µM] | GI50 [3] [µM] | GI50 [4] [µM] | GI50 [5] [µM] | GI50 [6] [µM] | GI50 [7] [µM] | GI50 [8] [µM] | TGI [11] [µM] | GI50 [11] [µM] |
| --- | --- | --- | --- | --- | --- | --- | --- | --- | --- | --- | --- | --- | --- | --- | --- | --- | --- | --- | --- | --- |
| O=C1OC(=O)C(=C\c2ccc3c(c2)OCO3)/C1=C/c1ccc2c(c1)OCO2 | > 100 | > 100 | > 100 | > 100 | > 100 | > 100 | > 88.6 | > 100 | – | – | – | – | – | – | – | – | – | – | – | – |
| COc1cc(C(=O)C/C(CCC(=O)Nc2ccccc2[N+](=O)[O-])=N\NC(N)=O)ccc1O | > 100 | > 100 | > 100 | > 100 | – | > 100 | > 100 | > 100 | > 100 | > 100 | – | – | – | – | – | – | – | – | – | – |
| N#Cc1c(N2CCOCC2)nc(=S)[nH]c1-c1ccco1 | 32.7 | 62.4 | > 100 | > 100 | 17.3 | > 100 | 52 | > 100 | – | – | 2.91 | 3.77 | 9.56 | 14.9 | 2.08 | 8.45 | 5.52 | 10.9 | – | – |
| O=C(O)CN1CCN(CC(=O)O)CC(=O)[O][Hg][O]C(=O)C1 | 32.4 | 36.4 | 34.1 | > 100 | > 71.3 | 34.8 | 32 | 52.6 | – | – | 18.3 | 21.5 | 16 | > 100 | > 43.9 | 19.2 | 3.96 | 20.7 | – | – |
| COc1ccc(C=O)c([N+](=O)[O-])c1 | > 100 | – | 63.8 | > 100 | – | > 100 | 76.3 | > 100 | 95.1 | 66.9 | – | – | – | – | – | – | – | – | – | – |
| OCC1OC(n2cnc3c(N/N=C\c4ccccn4)ncnc32)C(O)C1O (centres undefined) | 4.05 | 0.809 | > 100 | > 100 | > 51.4 | > 100 | > 100 | 1 | – | – | 0.866 | 0.202 | 0.417 | 0.399 | 1.78 | 0.995 | 0.0338 | 0.167 | – | – |
| O=C1c2ccccc2-c2cc([N+](=O)[O-])c([N+](=O)[O-])cc21 | 3.13 | 6.17 | 3.87 | 6.23 | > 100 | 8.4 | 0.958 | 5.13 | – | – | – | – | – | – | – | – | – | – | – | – |
| CC(C)C[C@H](NC(=O)CNC(=O)c1cc(Cl)ccc1Cl)B1OC(=O)CC(CC(=O)O)(C(=O)O)O1 (some centres undefined) | 0.221 | 4.48 | 0.141 | 20.6 | 80.7 | 0.191 | > 100 | 2.43 | – | – | 0.0396 | 0.041 | 0.0327 | 0.11 | 0.0524 | 0.0345 | 0.0299 | 0.0723 | – | – |
| C#C[C@]1(O)CCCC2=CC(=O)CC[C@@]21C | – | – | > 100 | > 100 | – | > 100 | > 100 | > 100 | > 100 | > 100 | – | – | – | – | – | – | – | – | > 100 | – |
| O=C1C(=C([O-])c2ccccc2)C(=O)c2ccccc21.O=C1C(=C([O-])c2ccccc2)C(=O)c2ccccc21.[Fe+2] | – | > 100 | > 100 | > 100 | – | > 100 | > 100 | > 100 | – | – | – | > 100 | > 100 | 54.7 | – | > 100 | 80.3 | > 100 | > 100 | > 100 |
| CCN(CC)CC1c2ccccc2C(CNc2ccccc2)N1C (centres undefined) | > 100 | > 100 | – | > 100 | – | > 100 | > 100 | > 100 | > 100 | > 100 | – | – | – | – | – | – | – | – | > 100 | – |
| C/C(=C\c1ccc2ccccc2c1)[N+](=O)[O-] | 3.26 | 4.05 | 4.46 | 19.3 | 9.26 | 4.06 | 5.65 | 3.72 | – | – | 1.76 | 1.92 | 2.18 | 4.58 | 2.54 | 1.95 | 1.89 | 1.91 | – | – |
| CN1C(=O)N(C)C2C1NN=c1s/c(=C\c3ccc(C(F)(F)F)cc3)c(=O)n12 (centres undefined) | > 100 | > 100 | > 100 | > 100 | 81.9 | > 100 | > 100 | > 100 | – | – | 0.662 | 3.39 | 0.44 | 1.45 | 2.13 | 10.2 | 0.955 | 10.4 | – | – |
| CN(C)CCCn1c(=O)c2ccccc2c2ccccc21 | 33.6 | 34.9 | 33.4 | 49.5 | 49 | 46.9 | > 100 | 41.4 | – | – | 17 | 6.23 | 5.74 | 6.63 | 17.8 | 21.6 | 22 | 15.6 | – | – |
| OCc1ccc(N2CCCC2c2ccccc2)cc1Cl (centres undefined) | 4.01 | 17.4 | 14.3 | 14.9 | 30.8 | 24.6 | 39.7 | 49.5 | – | – | 0.665 | 2.83 | 3.37 | 2.87 | 7.4 | 8.16 | 6.44 | 13.2 | – | – |
| Fc1ccc(/C=N/n2c(-c3ccc(F)c(Cl)c3)nn(CNc3ccccc3C(F)(F)F)c2=S)cc1 | > 100 | > 100 | > 100 | > 100 | > 100 | > 100 | > 100 | > 100 | – | – | 39.2 | > 100 | 94.4 | 52.8 | 45.2 | 97.2 | 51.6 | > 100 | – | – |
| COc1ccc(-c2[nH]c3ccccc3c2-c2ccc(OC)cc2)cc1 | 22 | 17.1 | 11.9 | 30.3 | 43.8 | 31.5 | > 100 | 15.1 | – | – | 6.25 | 3.67 | 2.99 | 7.14 | 4.41 | 8.6 | 2.85 | 3.99 | – | – |
